According to ChEMBL document CHEMBL1201862, “PubChem BioAssay data set” (2004):
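Growth conditions: 96-well plates. Treatment: test compound, 48 hours, 5 concentrations. Analysis: linear interpolation between bracketing concentrations; unreached endpoints set to highest concentration. Here, GI50 denotes the concentration required for 50% inhibition of growth.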 Activity calls are given as the source filed them. Cut-off read from the data, not from the text of the source: active = GI50 up to about 1.1 µM and inactive = higher.

Legend:
Test in all cases: growth of human tumour cells (NCI), 48 h
SW-620 = test system: SW-620
SK-MEL-2 = test system: SK-MEL-2
SNB-19 = test system: SNB-19
LOX IMVI = test system: LOX IMVI
OVCAR-8 = test system: OVCAR-8
SK-OV-3 = test system: SK-OV-3
TK-10 = test system: TK-10
KM12 = test system: KM12
OVCAR-4 = test system: OVCAR-4
SF-295 = test system: SF-295
MOLT-4 = test system: MOLT-4
NCI-H522 = test system: NCI-H522
HT-29 = test system: HT-29
786-0 = test system: 786-0
RXF 393 = test system: RXF 393
SK-MEL-28 = test system: SK-MEL-28
HOP-92 = test system: HOP-92
DU-145 = test system: DU-145
MDA-MB-435 = test system: MDA-MB-435

Row | SMILES | GI50 (SW-620) | GI50 (SK-MEL-2) | GI50 (SNB-19) | GI50 (LOX IMVI) | GI50 (OVCAR-8) | GI50 (SK-OV-3) | GI50 (TK-10) | GI50 (KM12) | GI50 (OVCAR-4) | GI50 (SF-295) | GI50 (MOLT-4) | GI50 (NCI-H522) | GI50 (HT-29) | GI50 (786-0) | GI50 (RXF 393) | GI50 (SK-MEL-28) | GI50 (HOP-92) | GI50 (DU-145) | GI50 (MDA-MB-435)
1 | CC1=[N+]([O-])c2ccccc2C(=O)C1=O | 89.5 µM (inactive) | > 100 µM (inactive) | 93.8 µM (inactive) | 41 µM (inactive) | > 100 µM (inactive) | > 100 µM (inactive) | > 100 µM (inactive) | > 100 µM (inactive) | 68.5 µM (inactive) | > 100 µM (inactive) | 43.2 µM (inactive) | 23.3 µM (inactive) | > 100 µM (inactive) | > 100 µM (inactive) | 81.1 µM (inactive) | > 100 µM (inactive) | 69 µM (inactive) | – | –
2 | O=C1CN(C(=O)c2ccccc2)Cc2[nH]c3ccccc3c21 | > 100 µM (inactive) | > 100 µM (inactive) | > 100 µM (inactive) | > 100 µM (inactive) | > 100 µM (inactive) | > 100 µM (inactive) | > 100 µM (inactive) | > 100 µM (inactive) | > 100 µM (inactive) | > 100 µM (inactive) | > 100 µM (inactive) | > 100 µM (inactive) | > 100 µM (inactive) | > 100 µM (inactive) | > 100 µM (inactive) | > 100 µM (inactive) | > 100 µM (inactive) | – | –
3 | N=C(N)N1CCC(N2CCOCC2)CC1 | > 100 µM (inactive) | – | > 100 µM (inactive) | – | > 100 µM (inactive) | > 100 µM (inactive) | > 100 µM (inactive) | > 100 µM (inactive) | > 100 µM (inactive) | > 100 µM (inactive) | > 100 µM (inactive) | – | > 100 µM (inactive) | > 100 µM (inactive) | > 100 µM (inactive) | > 100 µM (inactive) | > 100 µM (inactive) | > 100 µM (inactive) | > 100 µM (inactive)
4 | CCC1=CCC(P(=O)(c2ccccc2)c2ccccc2)CC1C (stereo not drawn) | 48.5 µM (inactive) | 29.7 µM (inactive) | 27.5 µM (inactive) | 44.3 µM (inactive) | 39.1 µM (inactive) | 62.8 µM (inactive) | 32.6 µM (inactive) | 35.1 µM (inactive) | 35.6 µM (inactive) | 32 µM (inactive) | 20.5 µM (inactive) | 20.7 µM (inactive) | > 100 µM (inactive) | 39 µM (inactive) | 42.2 µM (inactive) | 37.8 µM (inactive) | 25.5 µM (inactive) | – | –
5 | C/C(N)=[N+](/C)[O-] | – | > 100 µM (inactive) | – | 15.5 µM (inactive) | > 100 µM (inactive) | > 100 µM (inactive) | > 100 µM (inactive) | > 100 µM (inactive) | 38.5 µM (inactive) | > 100 µM (inactive) | > 100 µM (inactive) | 72.6 µM (inactive) | 83.6 µM (inactive) | > 100 µM (inactive) | > 100 µM (inactive) | 82.4 µM (inactive) | > 100 µM (inactive) | – | –
6 | C[C@]12CCC(=O)C(O)=C1CC[C@@H]1C2CC[C@]2(C)NC(=O)CCC12 (stereo partly drawn) | > 100 µM (inactive) | > 100 µM (inactive) | > 100 µM (inactive) | > 100 µM (inactive) | > 100 µM (inactive) | > 100 µM (inactive) | > 100 µM (inactive) | > 100 µM (inactive) | > 100 µM (inactive) | > 100 µM (inactive) | > 100 µM (inactive) | > 100 µM (inactive) | > 100 µM (inactive) | > 100 µM (inactive) | > 100 µM (inactive) | > 100 µM (inactive) | > 100 µM (inactive) | – | –
7 | N[C@H]1C2C3CC4C5CC(C42)C1(c1ccccc1)C53 (stereo partly drawn) | > 100 µM (inactive) | > 100 µM (inactive) | > 100 µM (inactive) | > 100 µM (inactive) | > 100 µM (inactive) | > 100 µM (inactive) | > 100 µM (inactive) | > 100 µM (inactive) | > 100 µM (inactive) | > 100 µM (inactive) | > 100 µM (inactive) | > 100 µM (inactive) | 62.5 µM (inactive) | > 100 µM (inactive) | 45.1 µM (inactive) | > 100 µM (inactive) | 65.8 µM (inactive) | – | –
8 | CCNC(=O)O/N=C1\CCC2[C@@H]3CC=C4C[C@@H](OC(=O)NCC)CC[C@]4(C)C3CC[C@]12C (stereo partly drawn) | 3.61 µM (inactive) | 2.13 µM (inactive) | 0.495 µM (active) | 0.537 µM (active) | 4.03 µM (inactive) | 7.82 µM (inactive) | 1.77 µM (inactive) | 2.9 µM (inactive) | 1.55 µM (inactive) | 0.971 µM (active) | 1.05 µM (active) | 1.57 µM (inactive) | 2.86 µM (inactive) | 2.91 µM (inactive) | 3.42 µM (inactive) | 3.19 µM (inactive) | 3.08 µM (inactive) | – | –
